Results taken from ChEMBL document CHEMBL1141867, “A small library of trisubstituted pyrimidines as antimalarial and antitubercular agents” (2005).
≈ marks a conversion by molar mass, not a printed value.

How the values were obtained:
Plasmodium falciparum = experiment: Antimalarial activity against Plasmodium falciparum NF54; format: functional; details: NF-54
[1] = tested on: Mycobacterium tuberculosis; experiment: Antitubercular activity against Mycobacterium tuberculosis H37Ra; format: functional

`Oc1ccc(-c2cc(-c3ccccc3)nc(NCCCN3CCOCC3)n2)cc1` showed an MIC (Plasmodium falciparum) of 2 µg/mL (≈ 5.12 µM) and an MIC [1] of 12.5 µg/mL (≈ 32 µM).

`Oc1ccc(-c2cc(-c3ccccc3)nc(N3CCOCC3)n2)cc1` showed an MIC (Plasmodium falciparum) of 2 µg/mL (≈ 6 µM).

`COc1ccc(OC)c(-c2cc(-c3ccc(O)cc3)nc(NCCCn3ccnc3)n2)c1` showed an MIC (Plasmodium falciparum) of 0.25 µg/mL (≈ 0.579 µM) and an MIC [1] of 12.5 µg/mL (≈ 29 µM).

With `CCN(CC)CCCC(C)Nc1nc(-c2ccc(O)cc2)cc(-c2ccc(OC)cc2)n1` (configuration not stated) the MIC (Plasmodium falciparum) was 10 µg/mL (≈ 23 µM) and the MIC [1] was 12.5 µg/mL (≈ 28.8 µM).

`COc1ccc(OC)c(-c2cc(-c3ccc(O)cc3)nc(NCCCN3CCOCC3)n2)c1` gave an MIC (Plasmodium falciparum) of 0.5 µg/mL (≈ 1.11 µM) and an MIC [1] of 25 µg/mL (≈ 55.5 µM).

Work on `COc1ccc(-c2cc(-c3ccc(O)cc3)nc(N3CCOCC3)n2)cc1OC` yielded an MIC (Plasmodium falciparum) of 0.5 µg/mL (≈ 1.27 µM).

Compound `CCN(CC)CCCC(C)Nc1nc(-c2ccc(C)cc2)cc(-c2ccc(O)cc2)n1` (configuration not stated) has an MIC (Plasmodium falciparum) of 50 µg/mL (≈ 119 µM).

Compound `COc1ccc(-c2cc(-c3ccc(O)cc3)nc(NCCCn3ccnc3)n2)cc1OC` has an MIC (Plasmodium falciparum) of 0.25 µg/mL (≈ 0.579 µM) and an MIC [1] of 12.5 µg/mL (≈ 29 µM).

`COc1ccc(OC)c(-c2cc(-c3ccc(O)cc3)nc(N3CCOCC3)n2)c1` was tested, and the MIC (Plasmodium falciparum) was 0.5 µg/mL (≈ 1.27 µM).

Work on `Oc1ccc(-c2cc(-c3ccccc3)nc(NCCCn3ccnc3)n2)cc1` yielded an MIC (Plasmodium falciparum) of 0.5 µg/mL (≈ 1.35 µM) and an MIC [1] of 25 µg/mL (≈ 67.3 µM).

Work on `Cc1ccc(-c2cc(-c3ccc(O)cc3)nc(N3CCOCC3)n2)cc1` yielded an MIC (Plasmodium falciparum) of 2 µg/mL (≈ 5.76 µM).

With `COc1ccc(-c2cc(-c3ccc(O)cc3)nc(NCCCN3CCOCC3)n2)cc1OC` the MIC (Plasmodium falciparum) was 0.5 µg/mL (≈ 1.11 µM) and the MIC [1] was 25 µg/mL (≈ 55.5 µM).

In the case of `CCN(CC)CCCC(C)Nc1nc(-c2ccc(O)cc2)cc(-c2cc(OC)ccc2OC)n1` (configuration not stated), the MIC (Plasmodium falciparum) is reported as 10 µg/mL (≈ 21.5 µM) and the MIC [1] is reported as 12.5 µg/mL (≈ 26.9 µM).

`Cc1ccc(-c2cc(-c3ccc(O)cc3)nc(NCCCN3CCOCC3)n2)cc1` was tested, and the MIC (Plasmodium falciparum) was 2 µg/mL (≈ 4.94 µM).

`Cc1ccc(-c2cc(-c3ccc(O)cc3)nc(NCCCn3ccnc3)n2)cc1` showed an MIC (Plasmodium falciparum) of 2 µg/mL (≈ 5.19 µM).

In the case of `COc1ccc(-c2cc(-c3ccc(O)cc3)nc(N3CCOCC3)n2)cc1`, the MIC (Plasmodium falciparum) is reported as 1 µg/mL (≈ 2.75 µM).

With `COc1ccc(-c2cc(-c3ccc(O)cc3)nc(NCCCn3ccnc3)n2)cc1` the MIC (Plasmodium falciparum) was 1 µg/mL (≈ 2.49 µM) and the MIC [1] was 12.5 µg/mL (≈ 31.1 µM).

`COc1ccc(-c2cc(-c3ccc(O)cc3)nc(NCCCN3CCOCC3)n2)cc1` was tested, and the MIC (Plasmodium falciparum) was 1 µg/mL (≈ 2.38 µM) and the MIC [1] was 12.5 µg/mL (≈ 29.7 µM).

In the case of `CCN(CC)CCCC(C)Nc1nc(-c2ccccc2)cc(-c2ccc(O)cc2)n1` (configuration not stated), the MIC (Plasmodium falciparum) is reported as 10 µg/mL (≈ 24.7 µM) and the MIC [1] is reported as 25 µg/mL (≈ 61.8 µM).

`CCN(CC)CCCC(C)Nc1nc(-c2ccc(O)cc2)cc(-c2ccc(OC)c(OC)c2)n1` (configuration not stated) was tested, and the MIC (Plasmodium falciparum) was 2 µg/mL (≈ 4.3 µM) and the MIC [1] was 12.5 µg/mL (≈ 26.9 µM).
